Test results: PMC12203311, “Design, synthesis, in silico and in vitro evaluation of pyrrole–indole hybrids as dual tubulin and aromatase inhibitors with potent anticancer activities” (RSC Advances, 2025)

Columns and labels:
[1] = tested on: CCRF-CEM; assay: NCI60 five-dose screen; type: cell-based; settings: Homo sapiens, leukemia; for CC50: read-out: LC50 (the source's name)
[2] = tested on: HL-60 (TB); assay: NCI60 five-dose screen; type: cell-based; settings: Homo sapiens, leukemia; for CC50: read-out: LC50 (the source's name)
[3] = tested on: K-562; assay: NCI60 five-dose screen; type: cell-based; settings: Homo sapiens, K562, K-562, leukemia; for CC50: read-out: LC50 (the source's name)
[4] = tested on: RPMI-8226; assay: NCI60 five-dose screen; type: cell-based; settings: Homo sapiens, RPMI-8226, leukemia; for CC50: read-out: LC50 (the source's name)
[5] = tested on: NCI-H23; assay: NCI60 five-dose screen; type: cell-based; settings: Homo sapiens, NCI-H23, NSC lung cancer; for CC50: read-out: LC50 (the source's name)
[6] = tested on: HCC-2998; assay: NCI60 five-dose screen; type: cell-based; settings: Homo sapiens, HCC-2998, colon cancer; for CC50: read-out: LC50 (the source's name)
[7] = tested on: HCT-116; assay: NCI60 five-dose screen; type: cell-based; settings: Homo sapiens, HCT-116, colon cancer; for CC50: read-out: LC50 (the source's name)
[8] = tested on: KM12; assay: NCI60 five-dose screen; type: cell-based; settings: Homo sapiens, KM12, colon cancer; for CC50: read-out: LC50 (the source's name)
[9] = tested on: SW-620; assay: NCI60 five-dose screen; type: cell-based; settings: Homo sapiens, SW-620, colon cancer; for CC50: read-out: LC50 (the source's name)
[10] = tested on: SF-539; assay: NCI60 five-dose screen; type: cell-based; settings: Homo sapiens, SF-539, CNS cancer; for CC50: read-out: LC50 (the source's name)
[11] = tested on: SNB-75; assay: NCI60 five-dose screen; type: cell-based; settings: Homo sapiens, SNB-75, CNS cancer; for CC50: read-out: LC50 (the source's name)
[12] = tested on: U251; assay: NCI60 five-dose screen; type: cell-based; settings: Homo sapiens, U-251, U251, CNS cancer; for CC50: read-out: LC50 (the source's name)
[13] = tested on: MALME-3M; assay: NCI60 five-dose screen; type: cell-based; settings: Homo sapiens, melanoma; for CC50: read-out: LC50 (the source's name)
[14] = tested on: MDA-MB-435; assay: NCI60 five-dose screen; type: cell-based, human; settings: Homo sapiens; for CC50: MDA-MB-435, MDA-MB-435, melanoma, read-out: LC50 (the source's name); for GI50: MDA-MB-435, melanoma
[15] = tested on: SK-MEL-2; assay: NCI60 five-dose screen; type: cell-based; settings: Homo sapiens, SK-MEL-2, melanoma; for CC50: read-out: LC50 (the source's name)
[16] = tested on: SK-MEL-28; assay: NCI60 five-dose screen; type: cell-based; settings: Homo sapiens, SK-MEL-28, melanoma; for CC50: read-out: LC50 (the source's name)
[17] = tested on: SK-MEL-5; assay: NCI60 five-dose screen; type: cell-based, human; settings: Homo sapiens; for CC50: SK-MEL-5, SK-MEL-5, melanoma, read-out: LC50 (the source's name); for GI50: SK-MEL-5, melanoma
[18] = tested on: UACC-62; assay: NCI60 five-dose screen; type: cell-based; settings: Homo sapiens, UACC-62, melanoma; for CC50: read-out: LC50 (the source's name)
[19] = tested on: IGROV1; assay: NCI60 five-dose screen; type: cell-based; settings: Homo sapiens, IGROV-1; IGROV1, ovarian cancer
[20] = tested on: OVCAR-3; assay: NCI60 five-dose screen; type: cell-based; settings: Homo sapiens, OVCAR-3, ovarian cancer; for CC50: read-out: LC50 (the source's name)
[21] = tested on: OVCAR-5; assay: NCI60 five-dose screen; type: cell-based; settings: Homo sapiens, OVCAR-5, ovarian cancer; for CC50: read-out: LC50 (the source's name)
[22] = tested on: SK-OV-3; assay: NCI60 five-dose screen; type: cell-based; settings: Homo sapiens, SK-OV-3, ovarian cancer; for CC50: read-out: LC50 (the source's name)
[23] = tested on: A498; assay: NCI60 five-dose screen; type: cell-based; settings: Homo sapiens, A498, renal cancer; for CC50: read-out: LC50 (the source's name)
[24] = tested on: RXF 393; assay: NCI60 five-dose screen; type: cell-based; settings: Homo sapiens, RXF 393, renal cancer; for CC50: read-out: LC50 (the source's name)
[25] = tested on: TK-10; assay: NCI60 five-dose screen; type: cell-based; settings: Homo sapiens, TK-10, renal cancer; for CC50: read-out: LC50 (the source's name)
[26] = tested on: UO-31; assay: NCI60 five-dose screen; type: cell-based; settings: Homo sapiens, UO-31, renal cancer; for CC50: read-out: LC50 (the source's name)
[27] = tested on: MCF7; assay: NCI60 five-dose screen; type: cell-based; settings: Homo sapiens, MCF7, breast cancer; for CC50: read-out: LC50 (the source's name)
[28] = tested on: MDA-MB-231/ATCC; assay: NCI60 five-dose screen; type: cell-based; settings: Homo sapiens, breast cancer; for CC50: read-out: LC50 (the source's name)
[29] = tested on: HS 578T; assay: NCI60 five-dose screen; type: cell-based; settings: Homo sapiens, breast cancer; for CC50: read-out: LC50 (the source's name)
[30] = tested on: T-47D; assay: NCI60 five-dose screen; type: cell-based; settings: Homo sapiens, T47D, breast cancer; for CC50: read-out: LC50 (the source's name)
[31] = tested on: T47D breast cancer cell line; assay: Cytotoxicity MTT assay, T47D; type: cell-based, human; settings: Homo sapiens, T47D; MTT, 48 hours
Outline: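 10 000 cells/well, overnight attachment; compound 48 h in DMEM/10% FBS, 37 °C, 5% CO2. MTT 0.5 mg mL^−1, 3 h; formazan in DMSO; A570. % viability vs DMSO vehicle.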

## O=C(N/N=C/c1[nH]ccc1Cl)c1[nH]c2ccc(Br)cc2c1-c1ccccc1 [Derivative 3g, (E)-5-Bromo-N′-((3-chloro-1H-pyrrol-2-yl)methylene)-3-phenyl-1H-indole-2-carbohydrazide]
[1]
  GI50: 1.53 µM
  CC50: > 100 µM
[2]
  GI50: 0.891 µM
  CC50: > 100 µM
[3]
  GI50: 0.413 µM
  CC50: > 100 µM
[4]
  GI50: 0.855 µM
  CC50: > 100 µM
[5]
  GI50: 0.884 µM
  CC50: 34.4 µM
[6]
  GI50: 1.23 µM
  CC50: 28.6 µM
[7]
  GI50: 0.467 µM
  CC50: 79.9 µM
[8]
  GI50: 0.488 µM
  CC50: 34.6 µM
[9]
  GI50: 0.499 µM
  CC50: 50.2 µM
[10]
  GI50: 0.378 µM
  CC50: 18.5 µM
[11]
  GI50: 0.325 µM
  CC50: 38.6 µM
[12]
  GI50: 0.63 µM
  CC50: 37.7 µM
[13]
  GI50: 0.596 µM
  CC50: 48.4 µM
[14]
  CC50: 25.5 µM
  GI50: 0.222 µM
[15]
  GI50: 1.07 µM
  CC50: 38.7 µM
[16]
  GI50: 0.909 µM
  CC50: 47.5 µM
[17]
  CC50: 63 µM
  GI50: 0.427 µM
[18]
  GI50: 0.411 µM
  CC50: 37 µM
[19]
  GI50: 0.734 µM
[20]
  GI50: 0.409 µM
  CC50: 34.9 µM
[21]
  GI50: 1.1 µM
  CC50: 35.7 µM
[22]
  GI50: 11.6 µM
  CC50: 64.1 µM
[23]
  GI50: 10.6 µM
  CC50: 49.3 µM
[24]
  GI50: 0.346 µM
  CC50: 42.1 µM
[25]
  GI50: 7.16 µM
  CC50: 49.5 µM
[26]
  GI50: 0.577 µM
  CC50: 35.7 µM
[27]
  GI50: 0.376 µM
  CC50: 42.2 µM
[28]
  GI50: 2.07 µM
  CC50: 28.2 µM
[29]
  GI50: 0.59 µM
  CC50: > 100 µM
[30]
  GI50: 2.5 µM
  CC50: 81.9 µM
[31]
  IC50: 8.2 ± 1.8 µM

## CCOC(=O)c1ccc(/C=N/NC(=O)c2[nH]c3ccc(Br)cc3c2-c2ccccc2)[nH]1 [Derivative 3i, Ethyl (E)-5-((2-(5-bromo-3-phenyl-1H-indole-2-carbonyl)hydrazono)methyl)-1H-pyrrole-2-carboxylate]
[1]
  GI50: 3.04 µM
  CC50: > 100 µM
[2]
  GI50: 1.84 µM
  CC50: > 100 µM
[3]
  GI50: 1.08 µM
  CC50: > 100 µM
[4]
  GI50: 2.28 µM
  CC50: > 100 µM
[5]
  GI50: 2.59 µM
  CC50: 43.2 µM
[6]
  GI50: 2.51 µM
  CC50: 36.4 µM
[7]
  GI50: 3.24 µM
  CC50: > 100 µM
[8]
  GI50: 2.22 µM
  CC50: 38 µM
[9]
  GI50: 3.93 µM
  CC50: 53.6 µM
[10]
  GI50: 1.6 µM
  CC50: 26.2 µM
[11]
  GI50: 0.399 µM
  CC50: > 100 µM
[12]
  GI50: 2.82 µM
  CC50: 39.4 µM
[13]
  GI50: 3.83 µM
  CC50: 54.8 µM
[14]
  CC50: 27.6 µM
  GI50: 0.464 µM
[15]
  GI50: 2.38 µM
  CC50: 55 µM
[16]
  GI50: 2.65 µM
  CC50: 94.5 µM
[17]
  CC50: 7.68 µM
  GI50: 1.48 µM
[18]
  GI50: 0.614 µM
  CC50: 48.5 µM
[19]
  GI50: 2.02 µM
[20]
  GI50: 2.63 µM
  CC50: 40.7 µM
[21]
  GI50: 3.43 µM
  CC50: 38 µM
[22]
  GI50: 4.01 µM
  CC50: > 100 µM
[23]
  GI50: 10.5 µM
  CC50: 55.2 µM
[24]
  GI50: 1.69 µM
  CC50: 66.4 µM
[25]
  GI50: 6.92 µM
  CC50: > 100 µM
[26]
  GI50: 1.48 µM
  CC50: > 100 µM
[27]
  GI50: 1.54 µM
  CC50: > 100 µM
[28]
  GI50: 2.63 µM
  CC50: 33.2 µM
[29]
  GI50: 1.21 µM
  CC50: > 100 µM
[30]
  GI50: 4.2 µM
  CC50: > 100 µM
[31]
  IC50: 11.8 ± 1.4 µM
